What all share (assay): Bliss excess, mean over the matrix (fraction); higher = more synergy
Assay [1] deals with A2780 (Ovarian Carcinoma). The gist of the method: (§1)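 Bliss excess equals the observed combination effect minus the expected value EA + EB − EA·EB, where EA and EB are the effects of each agent alone. Combination Emax is the second-highest inhibition within the matrix. Inhibition was scaled from CellTiter-Glo 2.0 luminescence, with 0 set by vehicle wells and 1 by blank wells, after 72 hours of two-drug dosing of cells plated in 1536-well plates.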

For assay [2], the system named is CGTH-W-1 (Thyroid Gland Carcinoma). The gist of the method:
as §1

Assay [3] relates to MDA-MB-436 (Breast Carcinoma). The gist of the method:
as §1

The test system of assay [4] is NCI-H1651 (Lung Adenocarcinoma). In short, it runs like this:
as §1

The test system of assay [5] is NCI-H441 (Lung Adenocarcinoma). The gist of the method:
as §1

The test system of assay [6] is 769-P (Kidney Carcinoma). In short, it runs like this: as §1
Assay [7] has as its system A253 (Head and Neck Carcinoma). The gist of the method: as §1
The subject of assay [8] is AU565 (Breast Carcinoma). In short, it runs like this: as §1
For assay [9], the system named is DMS-53 (Small Cell Lung Carcinoma). In short, it runs like this:
as §1

For assay [10], the system named is EPLC-272H (Other Solid Carcinomas). In short, it runs like this:
as §1

The test system of assay [11] is EW-16 (Ewing's Sarcoma). The gist of the method:
as §1

Assay [12] relates to GCT (Other Solid Carcinomas). The gist of the method:
as §1

For assay [13], the system named is JIMT-1 (Breast Carcinoma). The gist of the method:
as §1

For assay [14], the system named is LS-411N (Colorectal Carcinoma). In short, it runs like this: as §1
Assay [15] has as its system huH-1 (Hepatocellular Carcinoma). In short, it runs like this:
as §1

The text below walks through data of the supplement of paper PMC11061612.

As to `C=CCn1c(=O)c2cnc(Nc3ccc(N4CCN(C)CC4)cc3)nc2n1-c1cccc(C(C)(C)O)n1` [AZD1775] + Nc1ccn([C@@H]2O[C@H](CO)[C@@H](O)C2(F)F)c(=O)n1 [Gemcitabine] (first compound max 1 µM, partner max 0.3 µM), the Bliss excess is 0.0543 in assay [1]; 0.0167 in assay [2]; 0.0536 in assay [3]; -0.0104 in [4]; -0.0298 in assay [5].

As for `C=CCn1c(=O)c2cnc(Nc3ccc(N4CCN(C)CC4)cc3)nc2n1-c1cccc(C(C)(C)O)n1` [AZD1775] + CCc1c2c(nc3ccc(O)cc13)-c1cc3c(c(=O)n1C2)COC(=O)[C@]3(O)CC [SN-38] (first compound max 1 µM, partner max 0.3 µM), the Bliss excess in [6] is -0.0084; in assay [1] it was -0.0704; in [2], -0.0747; in assay [3] it was -0.0545; in [4] it was -0.0342; in [5], -0.0906.

For `CCc1c2c(nc3ccc(O)cc13)-c1cc3c(c(=O)n1C2)COC(=O)[C@]3(O)CC` [SN-38] + O=C(c1cc(Cc2n[nH]c(=O)c3ccccc23)ccc1F)N1CCN(C(=O)C2CC2)CC1 [Olaparib] (first compound max 0.3 µM, 7x7, partner max 10 µM), the Bliss excess in assay [6] is 0.0592; in assay [7], 0.0223; in [1] it was 0.0545; in [8], 0.0698; in assay [2], 0.0526; in assay [9], 0.0457. Moreover, the Bliss excess in assay [10] is 0.071; in [11] it was 0.076; in assay [12], 0.103; in assay [13], 0.035; in assay [14], -0.012; in assay [3], 0.0627. Moreover, the Bliss excess in assay [4] came out at 0.0252; in [5] it was 0.0449; in assay [15], 0.0467.

As to `CN(CCO)CC[C@H](CSc1ccccc1)Nc1ccc(S(=O)(=O)NC(=O)c2ccc(N3CCC([C@@H](O)c4ccccc4-c4ccc(Cl)cc4)CC3)cc2)cc1S(=O)(=O)C(F)(F)F` [AZD4320] + CS(=O)(=O)CCNCc1ccc(-c2ccc3ncnc(Nc4ccc(OCc5cccc(F)c5)c(Cl)c4)c3c2)o1 [Lapatinib] (first compound max 1 µM, 7x7, partner max 10 µM), the Bliss excess is -0.0042 in assay [6]; 0.0005 in assay [1]; -0.0184 in [2]; -0.0333 in assay [3]; 0.0395 in [4]; -0.0156 in assay [5].

`C[C@@H](Nc1cc(F)cc(F)c1)c1cc(C(=O)N(C)C)cc2c(=O)cc(N3CCOCC3)oc12` [AZD8186] + CC(=O)c1c(C)c2cnc(Nc3ccc(N4CCNCC4)cn3)nc2n(C2CCCC2)c1=O [Palbociclib] (first compound max 10 µM, 7x7, partner max 10 µM): the Bliss excess in [6] was 0.0354; in assay [1], 0.0054; in [2] it was 0.0397; in [3], -0.0039; in assay [4], -0.0192; in assay [5], 0.0155.

Take `O=C(c1cc(Cc2n[nH]c(=O)c3ccccc23)ccc1F)N1CCN(C(=O)C2CC2)CC1` [Olaparib] + CC1(C)CCC(CN2CCN(c3ccc(C(=O)NS(=O)(=O)c4ccc(NCC5CCOCC5)c([N+](=O)[O-])c4)c(Oc4cnc5[nH]ccc5c4)c3)CC2)=C(c2ccc(Cl)cc2)C1 [Venetoclax] (first compound max 10 µM, 7x7, partner max 1 µM): the Bliss excess was 0.0116 in assay [6]; -0.0044 in assay [1]; -0.0433 in [2]; -0.0518 in assay [3]; 0.001 in assay [4]; -0.0407 in assay [5].

Regarding `C[C@@H](Nc1cc(F)cc(F)c1)c1cc(C(=O)N(C)C)cc2c(=O)cc(N3CCOCC3)oc12` [AZD8186] + C1CN(CCC1(C(=O)N[C@@H](CCO)C2=CC=C(C=C2)Cl)N)C3=NC=NC4=C3C=CN4 [AZD5363] (first compound max 10 µM, 7x7, partner max 10 µM), the Bliss excess in [6] is -0.0459; in [1], -0.0411; in assay [2], -0.0136; in assay [3] it was -0.0162; in assay [4], -0.0302; in [5], -0.0392.

Consider `Cc1nc(-c2cn3c(n2)-c2ccc(-c4cnn(C(C)(C)C(N)=O)c4)cc2OCC3)n(C(C)C)n1` [Taselisib] + O=C(Nc1ccc2[nH]nc(-c3ccncc3)c2c1)[C@@H]1CCN(CC(=O)N2CCN(c3ccc(-c4ncccn4)cc3)CC2)C1 [SCH772984] (first compound max 10 µM, 7x7, partner max 5 µM), for which the Bliss excess in [6] is 0.0852; in assay [1], -0.0087; in assay [2] it was 0.0884; in assay [3], -0.0028; in assay [4], 0.0132; in assay [5], 0.0123.

Regarding `C[C@@H](Oc1cc(-c2cnn(C3CCNCC3)c2)cnc1N)c1c(Cl)ccc(F)c1Cl` [Crizotinib] + Cn1cnc2c(F)c(Nc3ccc(Br)cc3Cl)c(C(=O)NOCCO)cc21 [Selumetinib] (first compound max 10 µM, 7x7, partner max 10 µM), the Bliss excess in [6] is -0.0213; in [1] it was 0.0077; in assay [2], -0.0275; in assay [3], -0.005; in assay [4], -0.0478; in assay [5], 0.0148.

As for `C[C@@H]1COCCN1c1cc(C2([S@](C)(=N)=O)CC2)nc(-c2ccnc3[nH]ccc23)n1` [AZD6738] + C1CC(C1)(C(=O)[O-])C(=O)[O-].N.N.[Pt+2] [Carboplatin] (first compound max 10 µM, 7x7, partner max 10 µM), the Bliss excess is -0.0233 in assay [6]; -0.0379 in assay [1]; -0.0098 in assay [2]; -0.0038 in [3]; -0.0327 in [4]; -0.0436 in [5].
